Laboratory results: PubChem BioAssay (NCI)
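Cells were grown in 96-well plates and exposed to each compound for 48 hours at five concentrations; endpoints were interpolated linearly between bracketing concentrations, or set to the highest concentration if not reached. Here, GI50 denotes the concentration required for 50% inhibition of growth. TGI: total growth inhibition.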

How the values were obtained:
Assay in all cases: NCI-60 cell line screen, 48 h
OVCAR-3 ovarian = system: OVCAR-3 ovarian
UACC-62 melanoma = system: UACC-62 melanoma
BT-549 breast = system: BT-549 breast
LOX IMVI melanoma = system: LOX IMVI melanoma
HL-60(TB) leukemia = system: HL-60(TB) leukemia
SR leukemia = system: SR leukemia
NCI-H460 lung = system: NCI-H460 lung
MALME-3M melanoma = system: MALME-3M melanoma
M14 melanoma = system: M14 melanoma
KM12 colon = system: KM12 colon

Structure (SMILES)	GI50 (OVCAR-3 ovarian) [µM]	TGI (OVCAR-3 ovarian) [µM]	GI50 (UACC-62 melanoma) [µM]	TGI (UACC-62 melanoma) [µM]	GI50 (BT-549 breast) [µM]	TGI (BT-549 breast) [µM]	GI50 (LOX IMVI melanoma) [µM]	TGI (LOX IMVI melanoma) [µM]	GI50 (HL-60(TB) leukemia) [µM]	TGI (HL-60(TB) leukemia) [µM]	GI50 (SR leukemia) [µM]	TGI (SR leukemia) [µM]	GI50 (NCI-H460 lung) [µM]	TGI (NCI-H460 lung) [µM]	GI50 (MALME-3M melanoma) [µM]	TGI (MALME-3M melanoma) [µM]	TGI (M14 melanoma) [µM]	TGI (KM12 colon) [µM]	GI50 (M14 melanoma) [µM]	GI50 (KM12 colon) [µM]
O=C1c2ccccc2-c2nccc3cc(Cl)nc1c23	0.631	1.79	2.77	13	7.11	> 100	1.13	2.33	1.97	> 100	1.34	4.18	3	12.2	0.908	2.42	–	–	–	–
Cc1ccc(C(=O)O/N=C2/CCCCC2CN(C)C)cc1 (stereo not drawn)	–	> 100	–	> 100	–	–	–	> 100	–	> 100	–	> 100	–	> 100	–	> 100	> 100	> 100	–	–
ON(CCc1ccncc1)Cc1ccccc1	–	> 100	–	> 100	–	> 100	–	> 100	–	–	–	> 100	–	–	–	> 100	> 100	> 100	–	–
COC(=O)Nc1nc2ccc(Oc3ccc(NC(=O)Nc4cccc(Br)c4)cc3)cc2[nH]1	1.07	3.99	0.906	7.41	11.3	> 25	2.32	> 11.9	1.06	> 10.6	–	–	1.27	> 13.5	1.41	9.14	> 17.8	3.97	2.12	0.119
COc1ccc(S(=O)(=O)N/N=C/CN2C(=O)c3ccccc3C2=O)cc1OC	–	> 100	–	> 100	–	–	–	> 100	–	> 100	–	> 100	–	> 100	–	> 100	> 100	> 100	–	–
CCCCCCCCCCCCCCCC(=O)OCC1OC(n2cnc3c(=S)nc(N)[nH]c32)C(OC(=O)CCCCCCCCCCCCCCC)C1OC(=O)CCCCCCCCCCCCCCC (stereo not drawn)	6.16	> 47.3	3.35	> 21.5	> 50	> 50	1.54	> 50	> 35.6	> 50	–	–	2.8	> 22.6	> 28.3	> 50	> 17.9	> 50	1.5	9.48
CCN(CC)c1ccc(N=C2C=CC(=O)c3ncccc32)c(C)c1	–	11.4	–	16.8	–	–	–	4.39	–	5.15	–	6.51	–	21.8	–	12.5	13.4	27.1	–	–
O=S(=O)([O-])[O-].[Cl-].[NH2-].[NH2-].[NH2-].[NH2-].[Ru+3].c1ccc(-c2cccnc2)cc1	> 100	> 100	> 100	> 100	–	–	> 100	> 100	> 100	> 100	> 100	> 100	> 100	> 100	> 100	> 100	> 100	> 100	> 100	> 100
CC1CCc2c(sc3ncnc(N/N=C/c4ccc(Cl)c(Cl)c4)c23)C1 (stereo not drawn)	–	57.4	–	64.5	–	–	–	54.6	–	> 100	–	33	–	42.2	–	> 100	30.2	–	–	–
